Results as given in patent US8541460B2, “PDK-1/Akt signaling inhibitors” (The Ohio State University, priority 2003, dated 2013).

Tests used:
Type in all cases: cell-based
[1] = system: SW-620; experiment: NCI DTP cell line screen (SRB), Colon Cancer
Description: (§1) Screening of compounds 70 and 71 against several cancer cell lines The human tumor cell lines of the cancer screening panel are grown in RPMI 1640 medium containing 5% fetal bovine serum and 2 mM L-glutamine. For a typical screening experiment, cells are inoculated into 96 well microtiter plates in 100 μL at plating densities ranging from 5,000 to 40,000 cells/well depending on the doubling time of individual cell lines. After cell inoculation, the microtiter plates are incubated at 37° C., 5% CO2, 95% air and 100% relative humidity for 24 h prior to addition of experimental drugs.
(§2) After 24 h, two plates of each cell line are fixed in situ with TCA, to represent a measurement of the cell population for each cell line at the time of drug addition (Tz). Experimental drugs are solubilized in dimethyl sulfoxide at 400-fold the desired final maximum test concentration and stored frozen prior to use. At the time of drug addition, an aliquot of frozen concentrate is thawed and diluted to twice the desired final maximum test concentration with complete medium containing 50 μg/ml gentamicin. Additional four, 10-fold or ½ log serial dilutions are made to provide a total of five drug concentrations plus control. Aliquots of 100 μl of these different drug dilutions are added to the appropriate microtiter wells already containing 100 μl of medium, resulting in the required final drug concentrations.
(§3) Following drug addition, the plates are incubated for an additional 48 h at 37° C., 5% CO2, 95% air, and 100% relative humidity. For adherent cells, the assay is terminated by the addition of cold TCA. Cells are fixed in situ by the gentle addition of 50 μl of cold 50% (w/v) TCA (final concentration, 10% TCA) and incubated for 60 minutes at 4° C. The supernatant is discarded, and the plates are washed five times with tap water and air dried. Sulforhodamine B (SRB) solution (100 μl) at 0.4% (w/v) in 1% acetic acid is added to each well, and plates are incubated for 10 minutes at room temperature. After staining, unbound dye is removed by washing five times with 1% acetic acid and the plates are air dried. Bound stain is subsequently solubilized with 10 mM trizma base, and the absorbance is read on an automated plate reader at a wavelength of 515 nm. For suspension cells, the methodology is the same except that the assay is terminated by fixing settled cells at the bottom of the wells by gently adding 50 μl of 80% TCA (final concentration, 16% TCA). Using the seven absorbance measurements [time zero, (Tz), control growth, (C), and test growth in the presence of drug at the five concentration levels (Ti)], the percentage growth is calculated at each of the drug concentrations levels. Percentage growth inhibition is calculated as: [(Ti−Tz)/(C−Tz)]×100 for concentrations for which Ti>/=Tz [(Ti−Tz)/Tz]×100 for concentrations for which Ti<Tz
(§4) Three dose response parameters are calculated for each experimental agent. […] The drug concentration resulting in total growth inhibition (TGI) is calculated from Ti=Tz. […] Values are calculated for each of these three parameters if the level of activity is reached; however, if the effect is not reached or is exceeded, the value for that parameter is expressed as greater or less than the maximum or minimum concentration tested.
(§5) The methods described were used to test compounds 70 and 71 on a panel of sixty cell lines under a screening service provided by the Developmental Therapeutics Program at the National Institutes of Health. Shown in FIG. 1C are 1, RPMI-8226 leukemia cells; 2; NCI-H322M non-small cell lung cancer cells; 3, HT29 colon cancer cells; 4, U251 CNS cancer cells; 5, SK-MEL-28 melanoma cancer cells; 6, SK-OV-3 ovarian cancer cells; 7, RXF 393 renal cancer cells; 8, PC-3 prostate cancer cells; 9, MDA-MB-231 breast cancer cells.

[2] = system: KM12; experiment: NCI DTP cell line screen (SRB), Colon Cancer
Description: as §1, §2, §3, §4, §5

[3] = system: HCT-116; experiment: NCI DTP cell line screen (SRB), Colon Cancer
Description: as §1, §2, §3, §4, §5

[4] = system: NCI-H23; experiment: NCI DTP cell line screen (SRB), Non-Small Cell Lung Cancer
Description: as §1, §2, §3, §4, §5

[5] = system: A549/ATCC; experiment: as above
Description: as §1, §2, §3, §4, §5

[6] = system: EKVX; experiment: as above
Description: as §1, §2, §3, §4, §5

[7] = system: HOP-62; experiment: as above
Description: as §1, §2, §3, §4, §5

[8] = system: NCI-H322M; experiment: as above
Description: as §1, §2, §3, §4, §5

[9] = read-out: LC50 (the source's name)

N=C(N)Nc1ccc(-n2nc(C(F)(F)F)cc2-c2ccc3c(ccc4ccccc43)c2)cc1 [Compound 71, 4-[5-(2-Phenanthrenyl)-3-(trifluoromethyl)-1H-pyrazol-1-yl]-phenyl-guanidine]
GI50 [1]: 1.75 µM
TGI [1]: 3.13E−06
Mean Optical Densities ([1]; Log10 Concentration −4.0): 0.015
Percent Growth ([1]; Log10 Concentration −4.0): −92%
Mean Optical Densities ([1]; Log10 Concentration −5.0): −0.048
Percent Growth ([1]; Log10 Concentration −5.0): −100%
Mean Optical Densities ([1]; Log10 Concentration −6.0): 1.060
Percent Growth ([1]; Log10 Concentration −6.0): 98%
Mean Optical Densities ([1]; Log10 Concentration −7.0): 0.993
Percent Growth ([1]; Log10 Concentration −7.0): 91%
Mean Optical Densities ([1]; Log10 Concentration −8.0): 0.923
Percent Growth ([1]; Log10 Concentration −8.0): 83%
GI50 [2]: 1.59 µM
TGI [2]: 2.97E−06
Mean Optical Densities ([2]; Log10 Concentration −4.0): 0.307
Percent Growth ([2]; Log10 Concentration −4.0): −43%
Mean Optical Densities ([2]; Log10 Concentration −5.0): 0.013
Percent Growth ([2]; Log10 Concentration −5.0): −98%
Mean Optical Densities ([2]; Log10 Concentration −6.0): 1.777
Percent Growth ([2]; Log10 Concentration −6.0): 87%
Mean Optical Densities ([2]; Log10 Concentration −7.0): 1.832
Percent Growth ([2]; Log10 Concentration −7.0): 91%
Mean Optical Densities ([2]; Log10 Concentration −8.0): 1.867
Percent Growth ([2]; Log10 Concentration −8.0): 94%
GI50 [3]: 1.29 µM
TGI [3]: 2.55E−06
Mean Optical Densities ([3]; Log10 Concentration −4.0): 0.058
Percent Growth ([3]; Log10 Concentration −4.0): −49%
Mean Optical Densities ([3]; Log10 Concentration −5.0): −0.022
Percent Growth ([3]; Log10 Concentration −5.0): −100%
Mean Optical Densities ([3]; Log10 Concentration −6.0): 0.525
Percent Growth ([3]; Log10 Concentration −6.0): 68%
Mean Optical Densities ([3]; Log10 Concentration −7.0): 0.633
Percent Growth ([3]; Log10 Concentration −7.0): 86%
Mean Optical Densities ([3]; Log10 Concentration −8.0): 0.607
Percent Growth ([3]; Log10 Concentration −8.0): 82%
GI50 [4]: 1.79 µM
TGI [4]: 3.18E−06
Mean Optical Densities ([4]; Log10 Concentration −4.0): 0.151
Percent Growth ([4]; Log10 Concentration −4.0): −67%
Mean Optical Densities ([4]; Log10 Concentration −5.0): −0.041
Percent Growth ([4]; Log10 Concentration −5.0): −100%
Mean Optical Densities ([4]; Log10 Concentration −6.0): 1.679
Percent Growth ([4]; Log10 Concentration −6.0): 101%
Mean Optical Densities ([4]; Log10 Concentration −7.0): 1.515
Percent Growth ([4]; Log10 Concentration −7.0): 87%
Mean Optical Densities ([4]; Log10 Concentration −8.0): 1.585
Percent Growth ([4]; Log10 Concentration −8.0): 93%
CC50 [4, 9]: 5.64 µM
GI50 [5]: 1.68 µM
TGI [5]: 3.04E−06
Mean Optical Densities ([5]; Log10 Concentration −4.0): 0.135
Percent Growth ([5]; Log10 Concentration −4.0): −63%
Mean Optical Densities ([5]; Log10 Concentration −5.0): −0.032
Percent Growth ([5]; Log10 Concentration −5.0): −100%
Mean Optical Densities ([5]; Log10 Concentration −6.0): 1.121
Percent Growth ([5]; Log10 Concentration −6.0): 93%
Mean Optical Densities ([5]; Log10 Concentration −7.0): 1.145
Percent Growth ([5]; Log10 Concentration −7.0): 96%
Mean Optical Densities ([5]; Log10 Concentration −8.0): 1.140
Percent Growth ([5]; Log10 Concentration −8.0): 96%
CC50 [5, 9]: 5.51 µM
GI50 [6]: 1.06 µM
TGI [6]: 2.24E−06
Mean Optical Densities ([6]; Log10 Concentration −4.0): 0.145
Percent Growth ([6]; Log10 Concentration −4.0): −74%
Mean Optical Densities ([6]; Log10 Concentration −5.0): −0.008
Percent Growth ([6]; Log10 Concentration −5.0): −100%
Mean Optical Densities ([6]; Log10 Concentration −6.0): 0.711
Percent Growth ([6]; Log10 Concentration −6.0): 54%
Mean Optical Densities ([6]; Log10 Concentration −7.0): 0.737
Percent Growth ([6]; Log10 Concentration −7.0): 63%
Mean Optical Densities ([6]; Log10 Concentration −8.0): 0.713
Percent Growth ([6]; Log10 Concentration −8.0): 55%
CC50 [6, 9]: 4.74 µM
GI50 [7]: 1.72 µM
TGI [7]: 3.12E−06
Mean Optical Densities ([7]; Log10 Concentration −4.0): 0.329
Percent Growth ([7]; Log10 Concentration −4.0): −36%
Mean Optical Densities ([7]; Log10 Concentration −5.0): 0.011
Percent Growth ([7]; Log10 Concentration −5.0): −98%
Mean Optical Densities ([7]; Log10 Concentration −6.0): 1.255
Percent Growth ([7]; Log10 Concentration −6.0): 96%
Mean Optical Densities ([7]; Log10 Concentration −7.0): 1.267
Percent Growth ([7]; Log10 Concentration −7.0): 97%
Mean Optical Densities ([7]; Log10 Concentration −8.0): 1.285
Percent Growth ([7]; Log10 Concentration −8.0): 100%
GI50 [8]: 1.36 µM
TGI [8]: 2.64E−06
Mean Optical Densities ([8]; Log10 Concentration −4.0): 0.257
Percent Growth ([8]; Log10 Concentration −4.0): −59%
Mean Optical Densities ([8]; Log10 Concentration −5.0): −0.052
Percent Growth ([8]; Log10 Concentration −5.0): −100%
Mean Optical Densities ([8]; Log10 Concentration −6.0): 1.031
Percent Growth ([8]; Log10 Concentration −6.0): 73%
Mean Optical Densities ([8]; Log10 Concentration −7.0): 1.049
Percent Growth ([8]; Log10 Concentration −7.0): 76%
Mean Optical Densities ([8]; Log10 Concentration −8.0): 0.988
Percent Growth ([8]; Log10 Concentration −8.0): 65%
CC50 [8, 9]: 5.14 µM
